How the values were obtained:
human COX-2 = target: T1, human COX-2 (Homo sapiens, UniProt P35354); test: COX-2 purified enzyme assay (Cayman Chemical kit, PGH2 production detected as PGF2α by EIA); format: biochemical; details: for COX-2 selectivity (IC50 for COX-1/IC50 for COX-2): ovine COX-1 vs human COX-2, purified enzymes; for IC50: purified human COX-2, read-out: IC50 for inhibition of COX-2
T1 construct: purchased Cayman Chemical (Ann Arbor, Mich.)
T1 sequence (P35354 18-604): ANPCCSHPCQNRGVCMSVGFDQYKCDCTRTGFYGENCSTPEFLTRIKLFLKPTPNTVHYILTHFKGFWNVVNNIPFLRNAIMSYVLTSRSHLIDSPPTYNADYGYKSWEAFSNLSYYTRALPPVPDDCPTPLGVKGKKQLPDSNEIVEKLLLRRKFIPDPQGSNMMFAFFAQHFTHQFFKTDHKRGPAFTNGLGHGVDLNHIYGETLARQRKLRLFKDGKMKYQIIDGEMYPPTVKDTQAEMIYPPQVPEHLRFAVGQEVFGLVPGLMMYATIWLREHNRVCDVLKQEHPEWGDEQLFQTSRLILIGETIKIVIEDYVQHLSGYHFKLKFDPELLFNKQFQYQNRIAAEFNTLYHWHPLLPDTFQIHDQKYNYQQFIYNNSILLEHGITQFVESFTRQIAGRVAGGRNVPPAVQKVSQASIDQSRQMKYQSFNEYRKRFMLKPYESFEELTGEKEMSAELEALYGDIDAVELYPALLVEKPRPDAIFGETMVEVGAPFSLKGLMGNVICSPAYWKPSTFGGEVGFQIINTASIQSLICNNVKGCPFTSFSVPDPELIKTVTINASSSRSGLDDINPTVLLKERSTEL
Source text: (§1) . Because COX-1 and COX-2 convert arachidonic acid to prostaglandin H2 (PGH2), one can assess COX inhibitory activity of a test compound by measuring the effect of the compound on PGH2 production in the presence of purified COX-1 enzyme and, in a separate assay, in the presence of purified COX-2 enzyme. In this assay, the production of PGH2 can be measured by reducing PGH2 to prostaglandin F2α (PGF2α) with SnCl2 and then detecting PGF2α by enzyme immunoassay (EIA) using a suitable antibody.
. Using the methods described above, the inhibition of human COX-2 and ovine COX-1 by desbenzoylindomethacin was measured. […]

ovine COX-1 = target: T2, ovine COX-1 (Ovis aries, UniProt P05979); test: COX-1 purified enzyme assay (Cayman Chemical kit, PGH2 production detected as PGF2α by EIA); format: biochemical; details: purified ovine COX-1; read-out: IC50 for inhibition of COX-1
T2 construct: purchased Cayman Chemical (Ann Arbor, Mich.)
T2 sequence (P05979 25-600): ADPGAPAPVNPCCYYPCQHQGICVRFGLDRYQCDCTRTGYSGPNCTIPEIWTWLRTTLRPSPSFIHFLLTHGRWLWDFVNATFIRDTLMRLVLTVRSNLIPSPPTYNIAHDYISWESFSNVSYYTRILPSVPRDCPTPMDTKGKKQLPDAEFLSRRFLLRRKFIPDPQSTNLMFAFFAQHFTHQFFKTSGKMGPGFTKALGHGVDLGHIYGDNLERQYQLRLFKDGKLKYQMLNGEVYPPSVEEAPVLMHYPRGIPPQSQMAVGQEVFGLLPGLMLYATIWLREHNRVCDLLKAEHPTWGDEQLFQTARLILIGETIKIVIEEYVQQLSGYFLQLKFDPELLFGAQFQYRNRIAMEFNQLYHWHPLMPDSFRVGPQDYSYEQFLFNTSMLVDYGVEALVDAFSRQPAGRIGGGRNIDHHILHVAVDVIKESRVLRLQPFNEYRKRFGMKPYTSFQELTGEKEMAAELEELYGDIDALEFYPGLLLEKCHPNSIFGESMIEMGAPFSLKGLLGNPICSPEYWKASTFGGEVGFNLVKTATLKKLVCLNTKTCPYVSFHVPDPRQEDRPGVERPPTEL
Source text: as §1, with “Because” for “. Because”
Using the methods described above, the inhibition of human COX-2 and ovine COX-1 by desbenzoylindomethacin was measured.

prostaglandin synthesis = details: reported by Shen and Winter 1977; cited from earlier work

Row | Compound | melting point [°C] | potency reduced relative to indomethacin (human COX-2; COX-1 and COX-2 purified enzyme assays) [fold] | COX-2 selectivity (IC50 for COX-1/IC50 for COX-2) (human COX-2) | IC50 (human COX-2) [µM] | IC50 (ovine COX-1) [µM] | ability to inhibit prostaglandin synthesis (prostaglandin synthesis)
1 | Cc1c(CC(=O)O)c2cc(O)ccc2n1C(=O)c1ccccc1 [compound 5, (1-benzoyl-5-hydroxy-2-methyl-1H-indol-3-yl)acetic acid] | 186 to 188 | – | – | – | – | –
2 | Cc1c(CC(=O)O)c2cc(O)c(F)cc2n1C(=O)c1ccccc1 [compound 12, (1-benzoyl-6-fluoro-5-hydroxy-2-methyl-1H-indol-3-yl)acetic acid] | 159 to 161 | – | – | – | – | –
3 | COc1ccc2[nH]c(C)c(CC(=O)O)c2c1 [desbenzoylindomethacin] | – | ~100 | 1.6 | 12 | 20 | –
4 | Cc1c(CC(=O)O)c2cc(O)ccc2n1C(=O)c1ccc(Cl)cc1 [desmethylindomethacin, 1-(p-Chlorobenzoyl)-5-hydroxy-2-methylindole-3-acetic acid] | – | – | 50-150 | 0.1 to 0.3 | 15 | some ability to inhibit prostaglandin synthesis

— patent publication US20070293542A1, “Selective Cox-2 Inhibitors” (priority 2003, published 2007)
